Assay results reported in patent US9340590B2 (priority 2011, dated 2016).
Where two headings read alike, the source gives them in different places. Positions of bridges follow the written chain, without caps; N, C: chain ends. Non-standard residues stand in square brackets, D forms with d. Residues, ends and D or L forms follow the SMILES beside them. Abu = CC[C@H](N)C(=O)O

Experiments:
Experiment in all cases: cell-based
hNav1.5 = hNav1.5 (Homo sapiens, UniProt Q14524); conditions: IonWorks Quattro, read-out: IWQ Use Nav1.5
hNav1.7 = hNav1.7 (Homo sapiens, UniProt Q15858); type: cell-based; conditions: for IC50: IonWorks Quattro, read-out: IWQ Use Nav1.7
hNav1.4 = hNav1.4 (Homo sapiens, UniProt P35499); conditions: IonWorks Quattro, read-out: IWQ Use Nav1.4
hNav1.3 = hNav1.3 (Homo sapiens, UniProt Q9NY46); conditions: for IC50: IonWorks Quattro, read-out: IWQ Use Nav1.3
[1] = clamped to −110 mV, depolarized to −10 mV, 5 min after compound, n=2

Chain of hNav1.4 (P35499 whole entry, looked up): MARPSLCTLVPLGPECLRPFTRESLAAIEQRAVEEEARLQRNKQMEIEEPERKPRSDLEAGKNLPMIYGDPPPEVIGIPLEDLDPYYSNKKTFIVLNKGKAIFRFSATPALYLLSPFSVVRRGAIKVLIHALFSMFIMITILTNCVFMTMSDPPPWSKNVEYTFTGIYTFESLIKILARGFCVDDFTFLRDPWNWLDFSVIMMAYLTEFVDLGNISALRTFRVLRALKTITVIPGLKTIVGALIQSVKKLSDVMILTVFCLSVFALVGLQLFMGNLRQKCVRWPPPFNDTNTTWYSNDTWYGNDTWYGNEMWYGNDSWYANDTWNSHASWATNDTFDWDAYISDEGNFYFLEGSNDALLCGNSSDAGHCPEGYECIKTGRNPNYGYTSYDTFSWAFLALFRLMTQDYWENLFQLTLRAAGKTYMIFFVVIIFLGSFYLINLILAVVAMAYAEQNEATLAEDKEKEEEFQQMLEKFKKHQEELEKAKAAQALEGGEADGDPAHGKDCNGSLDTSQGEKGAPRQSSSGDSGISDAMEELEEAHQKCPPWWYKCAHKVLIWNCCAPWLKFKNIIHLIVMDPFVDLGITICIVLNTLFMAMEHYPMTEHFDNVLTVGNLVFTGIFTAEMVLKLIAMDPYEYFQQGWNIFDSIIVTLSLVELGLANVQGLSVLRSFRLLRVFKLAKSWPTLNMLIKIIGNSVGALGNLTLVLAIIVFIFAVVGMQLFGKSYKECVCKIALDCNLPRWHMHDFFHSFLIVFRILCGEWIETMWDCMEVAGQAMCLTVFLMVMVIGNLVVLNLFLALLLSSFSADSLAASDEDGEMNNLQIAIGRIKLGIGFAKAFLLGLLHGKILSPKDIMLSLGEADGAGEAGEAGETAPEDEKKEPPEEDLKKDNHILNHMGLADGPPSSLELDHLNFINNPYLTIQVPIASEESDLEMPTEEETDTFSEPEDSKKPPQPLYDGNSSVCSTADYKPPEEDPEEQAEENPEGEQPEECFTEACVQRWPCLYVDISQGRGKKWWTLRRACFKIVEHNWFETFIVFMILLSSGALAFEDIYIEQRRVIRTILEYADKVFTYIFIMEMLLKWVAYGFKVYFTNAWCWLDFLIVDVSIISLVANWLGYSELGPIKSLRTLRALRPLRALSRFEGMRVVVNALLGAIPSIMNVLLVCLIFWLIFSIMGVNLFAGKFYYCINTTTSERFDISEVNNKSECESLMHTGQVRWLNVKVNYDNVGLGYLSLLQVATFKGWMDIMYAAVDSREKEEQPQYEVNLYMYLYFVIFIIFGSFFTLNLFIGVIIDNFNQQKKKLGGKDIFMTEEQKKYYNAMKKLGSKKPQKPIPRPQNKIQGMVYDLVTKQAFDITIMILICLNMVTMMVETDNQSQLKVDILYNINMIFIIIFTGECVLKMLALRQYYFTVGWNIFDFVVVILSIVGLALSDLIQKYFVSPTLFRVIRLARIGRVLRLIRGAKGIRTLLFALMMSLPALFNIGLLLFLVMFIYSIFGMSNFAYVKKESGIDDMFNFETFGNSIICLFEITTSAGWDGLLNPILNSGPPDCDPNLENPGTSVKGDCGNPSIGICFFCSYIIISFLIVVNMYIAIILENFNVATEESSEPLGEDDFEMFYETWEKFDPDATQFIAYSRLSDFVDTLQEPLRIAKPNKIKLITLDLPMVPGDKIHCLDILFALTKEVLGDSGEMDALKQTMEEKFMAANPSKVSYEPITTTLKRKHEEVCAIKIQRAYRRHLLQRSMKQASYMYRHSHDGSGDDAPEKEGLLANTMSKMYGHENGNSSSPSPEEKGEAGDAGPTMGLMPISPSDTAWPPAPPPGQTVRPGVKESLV
Chain of hNav1.7 (Q15858 whole entry, looked up): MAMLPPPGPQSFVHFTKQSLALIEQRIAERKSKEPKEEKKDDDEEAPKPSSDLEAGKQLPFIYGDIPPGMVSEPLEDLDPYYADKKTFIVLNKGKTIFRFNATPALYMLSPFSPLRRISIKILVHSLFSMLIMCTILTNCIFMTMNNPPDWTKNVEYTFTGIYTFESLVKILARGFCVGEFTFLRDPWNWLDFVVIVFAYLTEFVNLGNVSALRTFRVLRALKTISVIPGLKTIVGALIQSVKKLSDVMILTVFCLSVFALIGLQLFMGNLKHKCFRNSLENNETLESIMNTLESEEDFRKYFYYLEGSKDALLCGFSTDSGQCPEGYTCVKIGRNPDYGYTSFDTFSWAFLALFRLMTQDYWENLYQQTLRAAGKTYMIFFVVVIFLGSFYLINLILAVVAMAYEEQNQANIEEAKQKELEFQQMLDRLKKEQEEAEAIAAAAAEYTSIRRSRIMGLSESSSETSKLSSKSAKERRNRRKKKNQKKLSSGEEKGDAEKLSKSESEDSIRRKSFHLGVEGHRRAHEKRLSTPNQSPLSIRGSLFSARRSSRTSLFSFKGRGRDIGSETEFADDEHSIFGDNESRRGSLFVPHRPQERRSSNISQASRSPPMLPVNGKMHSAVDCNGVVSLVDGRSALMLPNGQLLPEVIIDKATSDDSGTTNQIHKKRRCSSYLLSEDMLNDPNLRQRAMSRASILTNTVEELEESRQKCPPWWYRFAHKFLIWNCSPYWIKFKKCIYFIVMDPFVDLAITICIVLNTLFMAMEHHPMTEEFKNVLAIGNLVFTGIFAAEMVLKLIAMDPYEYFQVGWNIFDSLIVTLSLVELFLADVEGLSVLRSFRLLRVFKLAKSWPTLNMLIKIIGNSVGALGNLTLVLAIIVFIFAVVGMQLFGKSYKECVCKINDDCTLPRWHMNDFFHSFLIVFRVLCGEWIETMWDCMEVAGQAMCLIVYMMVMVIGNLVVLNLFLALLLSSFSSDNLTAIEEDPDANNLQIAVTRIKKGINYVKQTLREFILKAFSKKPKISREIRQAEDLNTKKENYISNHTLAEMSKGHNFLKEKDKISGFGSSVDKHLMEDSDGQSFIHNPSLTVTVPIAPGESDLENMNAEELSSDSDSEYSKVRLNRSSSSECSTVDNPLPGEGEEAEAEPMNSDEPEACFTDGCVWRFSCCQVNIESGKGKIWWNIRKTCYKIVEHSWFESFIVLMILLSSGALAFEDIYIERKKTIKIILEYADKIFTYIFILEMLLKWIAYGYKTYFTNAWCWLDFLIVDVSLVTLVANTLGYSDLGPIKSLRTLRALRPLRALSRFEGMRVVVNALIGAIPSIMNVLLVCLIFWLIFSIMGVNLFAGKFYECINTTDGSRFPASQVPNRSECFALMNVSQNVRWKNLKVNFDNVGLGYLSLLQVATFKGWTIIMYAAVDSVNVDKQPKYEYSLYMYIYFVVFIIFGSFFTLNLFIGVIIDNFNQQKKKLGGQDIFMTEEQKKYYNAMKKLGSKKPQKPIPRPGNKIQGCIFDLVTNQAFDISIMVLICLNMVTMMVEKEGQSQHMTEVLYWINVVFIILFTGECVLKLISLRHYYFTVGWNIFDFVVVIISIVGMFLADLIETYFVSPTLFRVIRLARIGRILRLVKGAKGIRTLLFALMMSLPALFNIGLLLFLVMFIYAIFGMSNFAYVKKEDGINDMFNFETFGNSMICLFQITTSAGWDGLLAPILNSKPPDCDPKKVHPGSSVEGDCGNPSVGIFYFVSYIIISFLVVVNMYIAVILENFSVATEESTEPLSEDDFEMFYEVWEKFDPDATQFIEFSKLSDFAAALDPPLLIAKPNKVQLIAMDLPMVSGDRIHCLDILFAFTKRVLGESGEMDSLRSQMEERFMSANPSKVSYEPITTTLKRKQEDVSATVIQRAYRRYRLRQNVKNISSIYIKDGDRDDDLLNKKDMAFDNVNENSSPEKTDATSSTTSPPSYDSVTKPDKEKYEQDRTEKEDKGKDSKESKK

SMILES	IC50 (hNav1.5; [1])	IC50 (hNav1.7; [1])	IC50 (hNav1.4; [1])	IC50 (hNav1.3; [1])	IC50 (hNav1.5; use-dependent block, hNav1.5)	IC50 (hNav1.7; use-dependent block, hNav1.7)	Nav1.4/Nav1.7 (hNav1.7; ratio of IWQ Use values, Nav1.4 over Nav1.7)	IC50 (hNav1.4; use-dependent block, hNav1.4)	IC50 (hNav1.3; use-dependent block, hNav1.3)	Nav1.4/Nav1.3 (hNav1.3; ratio of IWQ Use values, Nav1.4 over Nav1.3)	Nav1.7/Nav1.3 (hNav1.3; ratio of IWQ Use values, Nav1.7 over Nav1.3)
CC(C)C[C@H](NC(=O)[C@H](CCCCN)NC(=O)[C@H](Cc1ccc(O)cc1)NC(=O)[C@H](CCCCN)NC(=O)[C@@H]1CSSC[C@@H]2NC(=O)[C@H](CCCCN)NC(=O)[C@H](CC(=O)O)NC(=O)[C@H](CC(N)=O)NC(=O)[C@H](CC(=O)O)NC(=O)[C@@H]3CCCN3C(=O)[C@H](CC(=O)O)NC(=O)[C@@H]3CSSC[C@H](NC(=O)[C@H](CCCCN)NC(=O)[C@H](Cc4ccc(O)cc4)NC(=O)CNC(=O)[C@H](CCC(=O)O)NC(=O)[C@H](CSSC[C@H](NC(=O)[C@@H](N)CC(=O)O)C(=O)N[C@@H](CC(C)C)C(=O)NCC(=O)N[C@@H](Cc4c[nH]c5ccccc45)C(=O)N[C@@H](Cc4ccccc4)C(=O)N[C@@H](CCCCN)C(=O)NCC(=O)N3)NC2=O)C(=O)N[C@@H](CC(N)=O)C(=O)N[C@@H](CCCNC(=N)N)C(=O)N[C@@H](CCCNC(=N)N)C(=O)N[C@@H](CC(=O)O)C(=O)N[C@@H](CCCCN)C(=O)N[C@@H](Cc2c[nH]c3ccccc23)C(=O)N1)C(N)=O [SEQ ID NO: 468] (H-DCLGWFKGCDPDNDKCCEGYKCNRRDKWCKYKL-NH2; disulfide 2-17, 9-22, 16-29)	7.8 µM	8.93 µM	20 µM	9.37 µM	–	–	–	–	–	–	–
CC(C)C[C@H](NC(=O)[C@H](CCCCN)NC(=O)[C@H](Cc1ccc(O)cc1)NC(=O)[C@H](CCCCN)NC(=O)[C@@H]1CSSC[C@@H]2NC(=O)[C@H](CCCCN)NC(=O)[C@H](CC(=O)O)NC(=O)[C@H](CC(N)=O)NC(=O)[C@H](CC(=O)O)NC(=O)[C@@H]3CCCN3C(=O)[C@H](CC(=O)O)NC(=O)[C@@H]3CSSC[C@H](NC(=O)[C@H](CCCCN)NC(=O)[C@H](Cc4ccc(O)cc4)NC(=O)[C@H](CC(N)=O)NC(=O)[C@H](CCC(=O)O)NC(=O)[C@H](CSSC[C@H](NC(=O)[C@@H](N)CC(=O)O)C(=O)N[C@@H](CC(C)C)C(=O)NCC(=O)N[C@@H](Cc4c[nH]c5ccccc45)C(=O)N[C@@H](Cc4ccccc4)C(=O)N[C@@H](CCCCN)C(=O)NCC(=O)N3)NC2=O)C(=O)N[C@@H](CC(N)=O)C(=O)N[C@@H](CCCNC(=N)N)C(=O)N[C@@H](CCCNC(=N)N)C(=O)N[C@@H](CCC(=O)O)C(=O)N[C@@H](CCC(N)=O)C(=O)N[C@@H](Cc2c[nH]c3ccccc23)C(=O)N1)C(N)=O [SEQ ID NO: 469] (H-DCLGWFKGCDPDNDKCCENYKCNRREQWCKYKL-NH2; disulfide 2-17, 9-22, 16-29)	10.4 µM	9.25 µM	11 µM	4.92 µM	–	–	–	–	–	–	–
CC(C)C[C@@H]1NC(=O)[C@@H](NC(=O)[C@@H](N)CC(=O)O)CSSC[C@@H]2NC(=O)[C@@H]3CSSC[C@@H](C(=O)N[C@@H](CCCCN)C(=O)N[C@@H](Cc4ccc(O)cc4)C(=O)N[C@@H](CCCCN)C(=O)N[C@@H](CC(C)C)C(=O)N[C@@H](Cc4c[nH]c5ccccc45)C(=O)N[C@@H](CCCCN)C(=O)O)NC(=O)[C@H](Cc4c[nH]c5ccccc45)NC(=O)[C@H](CCCCN)NC(=O)[C@H](CC(=O)O)NC(=O)[C@H](CCCNC(=N)N)NC(=O)[C@H](CCCNC(=N)N)NC(=O)[C@H](CC(N)=O)NC(=O)[C@H](CSSC[C@H](NC(=O)CNC(=O)[C@H](CCCCN)NC(=O)[C@H](Cc4ccccc4)NC(=O)[C@H](Cc4c[nH]c5ccccc45)NC(=O)CNC1=O)C(=O)N[C@@H](CC(=O)O)C(=O)N1CCC[C@H]1C(=O)N[C@@H](CC(=O)O)C(=O)N[C@@H](CC(N)=O)C(=O)N[C@@H](CC(=O)O)C(=O)N[C@@H](CCCCN)C(=O)N3)NC(=O)[C@H](CCCCN)NC(=O)[C@H](Cc1ccc(O)cc1)NC(=O)[C@H](CC(N)=O)NC(=O)[C@H](CCC(=O)O)NC2=O [SEQ ID NO: 473] (H-DCLGWFKGCDPDNDKCCENYKCNRRDKWCKYKLWK-OH; disulfide 2-17, 9-22, 16-29)	7.6 µM	10.4 µM	10 µM	3.5 µM	–	–	–	–	–	–	–
CC(C)C[C@@H]1NC(=O)[C@@H](NC(=O)[C@@H](N)CC(=O)O)CSSC[C@@H]2NC(=O)[C@@H]3CSSC[C@@H](C(=O)N[C@@H](CCCCN)C(=O)N[C@@H](Cc4ccc(O)cc4)C(=O)N[C@@H](CCCCN)C(=O)N[C@@H](CC(C)C)C(=O)N[C@@H](Cc4c[nH]c5ccccc45)C(=O)O)NC(=O)[C@H](Cc4c[nH]c5ccccc45)NC(=O)[C@H](CCCCN)NC(=O)[C@H](CC(=O)O)NC(=O)[C@H](CCCNC(=N)N)NC(=O)[C@H](CCCNC(=N)N)NC(=O)[C@H](CC(N)=O)NC(=O)[C@H](CSSC[C@H](NC(=O)CNC(=O)[C@H](CCCCN)NC(=O)[C@H](Cc4ccccc4)NC(=O)[C@H](Cc4c[nH]c5ccccc45)NC(=O)CNC1=O)C(=O)N[C@@H](CC(=O)O)C(=O)N1CCC[C@H]1C(=O)N[C@@H](CC(=O)O)C(=O)N[C@@H](CC(N)=O)C(=O)N[C@@H](CC(=O)O)C(=O)N[C@@H](CCCCN)C(=O)N3)NC(=O)[C@H](CCCCN)NC(=O)[C@H](Cc1ccc(O)cc1)NC(=O)[C@H](CC(N)=O)NC(=O)[C@H](CCC(=O)O)NC2=O [SEQ ID NO: 474] (H-DCLGWFKGCDPDNDKCCENYKCNRRDKWCKYKLW-OH; disulfide 2-17, 9-22, 16-29)	7.9 µM	4 µM	10.5 µM	1.4 µM	–	–	–	–	–	–	–
CC(C)C[C@@H]1NC(=O)[C@@H](NC(=O)[C@@H](N)CC(=O)O)CSSC[C@@H]2NC(=O)[C@@H]3CSSC[C@@H](C(=O)N[C@@H](CCCCN)C(=O)N[C@@H](Cc4ccc(O)cc4)C(=O)N[C@@H](CCCCN)C(=O)N[C@@H](CC(C)C)C(=O)N[C@@H](Cc4c[nH]c5ccccc45)C(=O)N[C@@H](CCCCN)C(=O)O)NC(=O)[C@H](Cc4c[nH]c5ccccc45)NC(=O)[C@H](CCCCN)NC(=O)[C@H](CC(=O)O)NC(=O)[C@H](CCCNC(=N)N)NC(=O)[C@H](CCCNC(=N)N)NC(=O)[C@H](CC(N)=O)NC(=O)[C@H](CSSC[C@H](NC(=O)CNC(=O)[C@H](CCCCN)NC(=O)[C@H](Cc4ccccc4)NC(=O)[C@H](Cc4c[nH]c5ccccc45)NC(=O)CNC1=O)C(=O)N[C@@H](CC(=O)O)C(=O)N1CCC[C@H]1C(=O)N[C@@H](CC(=O)O)C(=O)N[C@@H](CC(N)=O)C(=O)N[C@@H](CC(=O)O)C(=O)N[C@@H](CCCCN)C(=O)N3)NC(=O)[C@H](CCCCN)NC(=O)[C@H](Cc1ccc(O)cc1)NC(=O)CNC(=O)[C@H](CCC(=O)O)NC2=O [compound 471] (H-DCLGWFKGCDPDNDKCCEGYKCNRRDKWCKYKLWK-OH; disulfide 2-17, 9-22, 16-29)	–	–	–	–	14.6 µM	9.6 µM	1.8	17.4 µM	1.7 µM	10.0	5.5
CC[C@@H]1NC(=O)[C@@H]2CSSC[C@@H](C(=O)N[C@@H](CCCCN)C(=O)N[C@@H](Cc3ccc(O)cc3)C(=O)N[C@H](C(=O)N[C@@H](Cc3ccccc3)C(N)=O)C(C)C)NC(=O)[C@H](Cc3c[nH]c4ccccc34)NC(=O)[C@H](CCCCN)NC(=O)[C@H](Cc3c[nH]cn3)NC(=O)[C@H]([C@@H](C)O)NC(=O)[C@H](CCCNC(=N)N)NC(=O)[C@H](CO)NC(=O)[C@H](CSSC[C@H](NC(=O)[C@H](CCCCN)NC(=O)[C@H](CCCNC(=N)N)NC(=O)[C@H](CCSC)NC(=O)[C@H](C)NC(=O)CNC(=O)[C@H](CC(C)C)NC(=O)[C@H](CC)NC(=O)[C@@H](N)CC(=O)O)C(=O)N[C@@H](CC(=O)O)C(=O)N3CCC[C@H]3C(=O)N[C@@H](CC(=O)O)C(=O)N[C@@H](CC(N)=O)C(=O)N[C@@H](CC(=O)O)C(=O)N[C@@H](CCCCN)C(=O)N2)NC(=O)[C@H](C(C)C)NC(=O)[C@H](CC(C)C)NC(=O)[C@H](CC(N)=O)NC(=O)[C@@H]2CCCN2C(=O)[C@H](CCCNC(=N)N)NC1=O [compound 716] (H-D[Abu]LGAMRKCDPDNDKC[Abu]RPNLVCSRTHKWCKYVF-NH2; disulfide 9-23, 16-30)	–	–	–	–	49 µM	3.7 µM	–	> 50 µM	> 5 µM	–	–
